The test system of data set [1] is C8166 cells infected with HIV-1IIIB or TZM-bl cells infected with HIV-1YU-2. Kind of data set: Combination antiviral activity assay (CompuSyn CI and DRI). The class given is cell-based.
Data set [2] is described as follows: Cytotoxicity, MTT assay, C8166 cells. It counts as cell-based. Particulars: human, three days, read-out: CC50 (Mean ± SD).
The nature of data set [3]: Cytotoxicity, MTT assay, H9/HIV-1IIIB cells. It counts as cell-based. Conditions: human, three days, read-out: CC50 (Mean ± SD). (Tetrazolium dyes change colour on reduction, which living cells bring about.)
In data set [4] the test system is HIV-1IIIB. Kind of data set: Anti-HIV-1 activity in the presence of human serum, p24 in C8166. Particulars: Human immunodeficiency virus 1, C8166, HIV-1IIIB.
A short description of data set [5]: Cytotoxicity, MTT assay, PBMCs. It counts as cell-based. Particulars: human, PBMC, seven days, read-out: CC50 (Mean ± SD).
The nature of data set [6]: Cytotoxicity, MTT assay, MT-4 cells. It counts as cell-based. Particulars: human, three days, read-out: CC50 (Mean ± SD).
The test system of data set [7] is HIV-1IIIB. The data set can be described thus: Anti-HIV-1 activity, MTT protection of MT-4 cells. The class given is cell-based. Particulars: Human immunodeficiency virus 1, MT4, MT-4, MTT.
The target of the next data set is T1, CYP1A2 (Homo sapiens, UniProt P05177).
T1 sequence (P05177 1-516): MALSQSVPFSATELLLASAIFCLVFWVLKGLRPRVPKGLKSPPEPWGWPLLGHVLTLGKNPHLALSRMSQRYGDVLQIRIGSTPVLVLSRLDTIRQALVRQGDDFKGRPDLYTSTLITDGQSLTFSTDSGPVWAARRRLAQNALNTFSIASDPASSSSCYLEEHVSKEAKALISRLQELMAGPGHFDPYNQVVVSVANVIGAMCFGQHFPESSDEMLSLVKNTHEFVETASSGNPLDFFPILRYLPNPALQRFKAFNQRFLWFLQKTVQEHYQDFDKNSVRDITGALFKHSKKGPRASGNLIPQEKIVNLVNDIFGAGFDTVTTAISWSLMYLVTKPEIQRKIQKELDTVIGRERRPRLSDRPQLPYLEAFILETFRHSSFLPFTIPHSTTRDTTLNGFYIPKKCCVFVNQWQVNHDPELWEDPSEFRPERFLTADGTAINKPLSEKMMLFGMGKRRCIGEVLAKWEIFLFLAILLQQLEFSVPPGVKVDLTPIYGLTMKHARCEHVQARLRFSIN
Kind of data set: Cytochrome P450 inhibition, human liver microsomes, phenacetin. (In general: Liver microsomes are a subcellular fraction often used to study metabolism.)

Data set [8] has as its system HIV-1IIIB. The data set can be described thus: Anti-HIV-1 activity, syncytia (CPE) count in C8166 cells. It counts as cell-based. Conditions: Human immunodeficiency virus 1.
Another data set has as its target CYP2C19 (Homo sapiens, UniProt P33261). The data set can be described thus: Cytochrome P450 inhibition, human liver microsomes, S-mephenytoin.
The next data set concerns the target CYP3A4M (Homo sapiens, UniProt P08684). The data set can be described thus: Cytochrome P450 inhibition, human liver microsomes, midazolam.
A further data set addresses CYP2C9 (Homo sapiens, UniProt P11712). The data set can be described thus: Cytochrome P450 inhibition, human liver microsomes, diclofenac.
Data set [9] concerns HIV-1IIIB chronically infected H9 cells. The data set can be described thus: HIV-1 replication in chronically infected H9/HIV-1IIIB cells, p24. It counts as cell-based.
A further data set has as its system HIV-1Yu-2(G140S/Q148H). Kind of data set: microbe, parasite or virus in culture. The class given is cell-based. Particulars: Human immunodeficiency virus 1, TZM-bl.
For another data set, the target named is CYP2D6 (Homo sapiens, UniProt P10635). Kind of data set: Cytochrome P450 inhibition, human liver microsomes, dextromethorphan.
Chain of CYP2D6 (P10635 whole entry): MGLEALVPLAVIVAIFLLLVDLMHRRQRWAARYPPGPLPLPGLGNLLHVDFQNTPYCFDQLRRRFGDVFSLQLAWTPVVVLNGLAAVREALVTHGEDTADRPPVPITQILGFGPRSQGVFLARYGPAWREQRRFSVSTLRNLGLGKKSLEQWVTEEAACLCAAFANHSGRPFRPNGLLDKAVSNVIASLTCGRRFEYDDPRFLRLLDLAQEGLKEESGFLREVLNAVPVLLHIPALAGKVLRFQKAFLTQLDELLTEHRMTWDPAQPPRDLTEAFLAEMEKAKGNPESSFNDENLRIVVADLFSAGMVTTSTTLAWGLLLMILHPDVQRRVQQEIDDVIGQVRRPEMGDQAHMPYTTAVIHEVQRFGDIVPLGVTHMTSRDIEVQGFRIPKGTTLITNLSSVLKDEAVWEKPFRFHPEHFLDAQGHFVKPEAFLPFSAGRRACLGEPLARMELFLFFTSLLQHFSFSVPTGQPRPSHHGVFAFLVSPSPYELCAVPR
[10] abbreviates: single drug in combination K-5a2+3TC.
[11] abbreviates: single drug in combination K-5a2+AZT.
[12] abbreviates: single drug in combination K-5a2+DRV.
The mark [13] stands for this setting: single drug in combination K-5a2+DTG.
Where [14] appears, read: single drug in combination K-5a2+ETR.
Where [15] appears, read: single drug in combination K-5a2+FTC.
[16] abbreviates: single drug in combination K-5a2+TDF.
The mark [17] stands for this setting: single drug in combination K-5a2+T-20.
[18] abbreviates: single drug in combination K-5a2+MVC.
Setting [19] is: single drug in combination K-5a2+DC521022.

Read-outs that look alike come from different tables or passages of the source. Some results are limits rather than exact numbers.

Chain of CYP2C19 (P33261 whole entry): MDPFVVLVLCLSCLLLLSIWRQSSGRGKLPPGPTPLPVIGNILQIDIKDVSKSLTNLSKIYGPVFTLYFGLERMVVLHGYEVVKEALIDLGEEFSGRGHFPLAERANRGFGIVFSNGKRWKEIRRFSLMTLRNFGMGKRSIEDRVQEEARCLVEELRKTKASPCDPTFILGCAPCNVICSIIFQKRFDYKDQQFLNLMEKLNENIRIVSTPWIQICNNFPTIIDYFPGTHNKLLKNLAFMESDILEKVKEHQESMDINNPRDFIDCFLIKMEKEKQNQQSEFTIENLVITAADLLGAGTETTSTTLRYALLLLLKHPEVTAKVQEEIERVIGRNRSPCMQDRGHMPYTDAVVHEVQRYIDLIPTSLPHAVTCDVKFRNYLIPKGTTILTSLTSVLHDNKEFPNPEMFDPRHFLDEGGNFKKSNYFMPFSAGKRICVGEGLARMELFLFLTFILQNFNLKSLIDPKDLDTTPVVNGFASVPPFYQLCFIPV
Chain of CYP3A4M (P08684 whole entry): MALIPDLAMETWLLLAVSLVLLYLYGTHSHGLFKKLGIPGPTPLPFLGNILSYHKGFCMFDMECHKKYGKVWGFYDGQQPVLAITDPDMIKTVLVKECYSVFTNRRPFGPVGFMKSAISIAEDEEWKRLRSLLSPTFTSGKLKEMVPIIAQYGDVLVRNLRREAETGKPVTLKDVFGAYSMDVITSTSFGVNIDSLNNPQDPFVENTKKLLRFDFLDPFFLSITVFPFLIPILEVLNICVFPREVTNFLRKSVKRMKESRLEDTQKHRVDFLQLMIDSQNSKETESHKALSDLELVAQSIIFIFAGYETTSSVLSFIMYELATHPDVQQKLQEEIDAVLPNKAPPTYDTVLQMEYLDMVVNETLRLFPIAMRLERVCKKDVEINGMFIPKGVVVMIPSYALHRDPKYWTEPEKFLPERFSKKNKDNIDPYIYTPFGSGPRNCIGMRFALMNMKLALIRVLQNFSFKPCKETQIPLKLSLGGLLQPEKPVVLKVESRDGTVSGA
Chain of CYP2C9 (P11712 whole entry): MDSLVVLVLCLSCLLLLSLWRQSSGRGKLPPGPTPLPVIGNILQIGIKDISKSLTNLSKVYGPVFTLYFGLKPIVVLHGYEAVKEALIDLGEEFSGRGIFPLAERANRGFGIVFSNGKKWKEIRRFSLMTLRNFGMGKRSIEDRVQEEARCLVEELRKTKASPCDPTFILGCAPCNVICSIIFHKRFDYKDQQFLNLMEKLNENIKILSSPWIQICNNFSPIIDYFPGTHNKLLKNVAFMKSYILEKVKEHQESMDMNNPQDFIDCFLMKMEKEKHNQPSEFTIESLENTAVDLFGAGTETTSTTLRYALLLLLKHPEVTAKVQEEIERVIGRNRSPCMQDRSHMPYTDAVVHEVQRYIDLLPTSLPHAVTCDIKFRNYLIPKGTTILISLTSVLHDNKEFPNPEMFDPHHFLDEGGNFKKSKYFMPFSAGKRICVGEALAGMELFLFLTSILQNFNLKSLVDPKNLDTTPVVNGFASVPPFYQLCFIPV

With `Nc1ccn([C@@H]2CS[C@H](CO)O2)c(=O)n1` [3TC, lamivudine, reference compound], in data set [1] (setting [10]), the “DRI Value ED75” value is 2.83 ± 0.52, the “DRI Value ED90” value is on record as 3.28 ± 0.80 and the “DRI Value ED95” value was found to be 3.64 ± 1.06.
As to `Cc1cn([C@H]2C[C@H](N=[N+]=[N-])[C@@H](CO)O2)c(=O)[nH]c1=O` [AZT, zidovudine, reference compound], in [1] (setting [11]), the “DRI Value ED75” value came out at 4.88 ± 2.30, the “DRI Value ED90” value stood at 5.60 ± 2.33 and the “DRI Value ED95” value is listed as 6.52 ± 3.94.
Consider `CC(C)CN(C[C@@H](O)[C@H](Cc1ccccc1)NC(=O)O[C@H]1CO[C@H]2OCC[C@H]21)S(=O)(=O)c1ccc(N)cc1` [DRV, darunavir, reference compound], for which, in data set [1] (setting [12]), the “DRI Value ED75” value is listed as 2.82 ± 0.21, the “DRI Value ED90” value was 3.41 ± 0.86 and the “DRI Value ED95” value is 3.93 ± 1.44.
For the compound `C[C@@H]1CCO[C@H]2Cn3cc(C(=O)NCc4ccc(F)cc4F)c(=O)c(O)c3C(=O)N12` [DTG, dolutegravir, reference compound], in data set [1] (setting [13]), the “DRI Value ED75” value is 2.37 ± 0.28, the “DRI Value ED90” value turned out to be 2.50 ± 0.41 and the “DRI Value ED95” value is given as 2.61 ± 0.68.
Consider `Cc1cc(C#N)cc(C)c1Oc1nc(Nc2ccc(C#N)cc2)nc(N)c1Br` [ETR, etravirine, reference compound], for which the CC50 – broadly, the concentration that lowers cell viability or growth by half – at 3 days was above 50 µM in data set [2], 30.4 ± 1.59 µM in [3] and 27.4 ± 5.46 µM in data set [6]. Moreover, the EC50 (as a rule, the concentration at which the effect is half-maximal) in the data set with HIV-1IIIB [4] (C8166, p24, 20% human serum) was 0.00656 ± 0.00489 µM; in the data set with HIV-1IIIB [4] (C8166, p24, 40% human serum), 0.00209 ± 0.00065 µM; in the data set on HIV-1IIIB [7] it was 0.00615 ± 0.00176 µM; in the data set on HIV-1IIIB [8], 0.00174 ± 0.00067 µM; in data set [9] (Human immunodeficiency virus 1, HIV-1IIIB, H9/HIV-1IIIB chronically infected, p24), above 50 µM; in the data set on HIV-1Yu-2(G140S/Q148H) it was below 0.00013 µM. Moreover, the CC50 at 7 days in data set [5] is 34.5 ± 3.06 µM. The IC50 – broadly, the point on the concentration scale where inhibition reaches its midpoint – at CYP1A2 came out at 7.48 µM; against CYP2C19 it was 0.5 µM; on CYP3A4M, 41.3 µM; against CYP2C9, 0.28 µM; on CYP2D6 it was 12 µM. Also, the “Inhibition of HIV-1 replication in HIV-1IIIB chronically infected H9 cells” value in data set [9] (at a concentration of 50.00 µM) is “could not inhibit the replication”. Further, the “DRI Value ED75” value in data set [1] (setting [14]) is reported as 2.44 ± 0.52. Moreover, in data set [1] (setting [14]), the “DRI Value ED90” value is recorded as 2.20 ± 0.58. In addition, in data set [1] (setting [14]), the “DRI Value ED95” value turned out to be 2.06 ± 0.61.
`Nc1nc(=O)n([C@@H]2CS[C@H](CO)O2)cc1F` [FTC, emtricitabine, reference compound]: in data set [1] (setting [15]), the “DRI Value ED75” value is reported as 2.38 ± 0.10, the “DRI Value ED90” value is 2.22 ± 0.23 and the “DRI Value ED95” value is given as 2.11 ± 0.32.
Consider `Cc1nnc(C(=O)NC(C)(C)c2nc(C(=O)NCc3ccc(F)cc3)c(O)c(=O)n2C)o1` [RAL, raltegravir, reference compound], for which, in [1], the “DRI Value ED75” value turned out to be 3.08 ± 1.11, the “DRI Value ED90” value was 3.50 ± 1.64 and the “DRI Value ED95” value is 3.83 ± 2.07.
For the compound `C[C@H](Cn1cnc2c(N)ncnc21)OCP(=O)(O)O` [TDF, tenofovir, reference compound], in [1] (setting [16]), the “DRI Value ED75” value was 3.22 ± 0.71, the “DRI Value ED90” value turned out to be 3.46 ± 0.35 and the “DRI Value ED95” value is 3.69 ± 0.66.
As for enfuvirtide [T-20, reference compound], in data set [1] (setting [17]), the “DRI Value ED75” value is listed as 2.05 ± 0.42, the “DRI Value ED90” value came out at 2.37 ± 0.18 and the “DRI Value ED95” value was found to be 2.69 ± 0.66.
Consider maraviroc [MVC, reference compound], for which, in data set [1] (setting [18]), the “DRI Value ED75” value was 4.58 ± 0.50, the “DRI Value ED90” value was 5.10 ± 0.83 and the “DRI Value ED95” value came to 5.49 ± 1.09.
For the compound “thioraviroc [DC521022, reference compound]”, in data set [1] (setting [19]), the “DRI Value ED75” value is recorded as 5.41 ± 4.21, the “DRI Value ED90” value was 7.32 ± 6.96 and the “DRI Value ED95” value was 9.08 ± 9.61.

For the origin of these results see PMC9699427 (Viruses, 2022).
